We go through six molecules from patent publication US11117900B2 (Vertex Pharmaceuticals Incorporated, priority 2012, dated 2021).

Sequence of full-length ATR (Q13535 whole entry): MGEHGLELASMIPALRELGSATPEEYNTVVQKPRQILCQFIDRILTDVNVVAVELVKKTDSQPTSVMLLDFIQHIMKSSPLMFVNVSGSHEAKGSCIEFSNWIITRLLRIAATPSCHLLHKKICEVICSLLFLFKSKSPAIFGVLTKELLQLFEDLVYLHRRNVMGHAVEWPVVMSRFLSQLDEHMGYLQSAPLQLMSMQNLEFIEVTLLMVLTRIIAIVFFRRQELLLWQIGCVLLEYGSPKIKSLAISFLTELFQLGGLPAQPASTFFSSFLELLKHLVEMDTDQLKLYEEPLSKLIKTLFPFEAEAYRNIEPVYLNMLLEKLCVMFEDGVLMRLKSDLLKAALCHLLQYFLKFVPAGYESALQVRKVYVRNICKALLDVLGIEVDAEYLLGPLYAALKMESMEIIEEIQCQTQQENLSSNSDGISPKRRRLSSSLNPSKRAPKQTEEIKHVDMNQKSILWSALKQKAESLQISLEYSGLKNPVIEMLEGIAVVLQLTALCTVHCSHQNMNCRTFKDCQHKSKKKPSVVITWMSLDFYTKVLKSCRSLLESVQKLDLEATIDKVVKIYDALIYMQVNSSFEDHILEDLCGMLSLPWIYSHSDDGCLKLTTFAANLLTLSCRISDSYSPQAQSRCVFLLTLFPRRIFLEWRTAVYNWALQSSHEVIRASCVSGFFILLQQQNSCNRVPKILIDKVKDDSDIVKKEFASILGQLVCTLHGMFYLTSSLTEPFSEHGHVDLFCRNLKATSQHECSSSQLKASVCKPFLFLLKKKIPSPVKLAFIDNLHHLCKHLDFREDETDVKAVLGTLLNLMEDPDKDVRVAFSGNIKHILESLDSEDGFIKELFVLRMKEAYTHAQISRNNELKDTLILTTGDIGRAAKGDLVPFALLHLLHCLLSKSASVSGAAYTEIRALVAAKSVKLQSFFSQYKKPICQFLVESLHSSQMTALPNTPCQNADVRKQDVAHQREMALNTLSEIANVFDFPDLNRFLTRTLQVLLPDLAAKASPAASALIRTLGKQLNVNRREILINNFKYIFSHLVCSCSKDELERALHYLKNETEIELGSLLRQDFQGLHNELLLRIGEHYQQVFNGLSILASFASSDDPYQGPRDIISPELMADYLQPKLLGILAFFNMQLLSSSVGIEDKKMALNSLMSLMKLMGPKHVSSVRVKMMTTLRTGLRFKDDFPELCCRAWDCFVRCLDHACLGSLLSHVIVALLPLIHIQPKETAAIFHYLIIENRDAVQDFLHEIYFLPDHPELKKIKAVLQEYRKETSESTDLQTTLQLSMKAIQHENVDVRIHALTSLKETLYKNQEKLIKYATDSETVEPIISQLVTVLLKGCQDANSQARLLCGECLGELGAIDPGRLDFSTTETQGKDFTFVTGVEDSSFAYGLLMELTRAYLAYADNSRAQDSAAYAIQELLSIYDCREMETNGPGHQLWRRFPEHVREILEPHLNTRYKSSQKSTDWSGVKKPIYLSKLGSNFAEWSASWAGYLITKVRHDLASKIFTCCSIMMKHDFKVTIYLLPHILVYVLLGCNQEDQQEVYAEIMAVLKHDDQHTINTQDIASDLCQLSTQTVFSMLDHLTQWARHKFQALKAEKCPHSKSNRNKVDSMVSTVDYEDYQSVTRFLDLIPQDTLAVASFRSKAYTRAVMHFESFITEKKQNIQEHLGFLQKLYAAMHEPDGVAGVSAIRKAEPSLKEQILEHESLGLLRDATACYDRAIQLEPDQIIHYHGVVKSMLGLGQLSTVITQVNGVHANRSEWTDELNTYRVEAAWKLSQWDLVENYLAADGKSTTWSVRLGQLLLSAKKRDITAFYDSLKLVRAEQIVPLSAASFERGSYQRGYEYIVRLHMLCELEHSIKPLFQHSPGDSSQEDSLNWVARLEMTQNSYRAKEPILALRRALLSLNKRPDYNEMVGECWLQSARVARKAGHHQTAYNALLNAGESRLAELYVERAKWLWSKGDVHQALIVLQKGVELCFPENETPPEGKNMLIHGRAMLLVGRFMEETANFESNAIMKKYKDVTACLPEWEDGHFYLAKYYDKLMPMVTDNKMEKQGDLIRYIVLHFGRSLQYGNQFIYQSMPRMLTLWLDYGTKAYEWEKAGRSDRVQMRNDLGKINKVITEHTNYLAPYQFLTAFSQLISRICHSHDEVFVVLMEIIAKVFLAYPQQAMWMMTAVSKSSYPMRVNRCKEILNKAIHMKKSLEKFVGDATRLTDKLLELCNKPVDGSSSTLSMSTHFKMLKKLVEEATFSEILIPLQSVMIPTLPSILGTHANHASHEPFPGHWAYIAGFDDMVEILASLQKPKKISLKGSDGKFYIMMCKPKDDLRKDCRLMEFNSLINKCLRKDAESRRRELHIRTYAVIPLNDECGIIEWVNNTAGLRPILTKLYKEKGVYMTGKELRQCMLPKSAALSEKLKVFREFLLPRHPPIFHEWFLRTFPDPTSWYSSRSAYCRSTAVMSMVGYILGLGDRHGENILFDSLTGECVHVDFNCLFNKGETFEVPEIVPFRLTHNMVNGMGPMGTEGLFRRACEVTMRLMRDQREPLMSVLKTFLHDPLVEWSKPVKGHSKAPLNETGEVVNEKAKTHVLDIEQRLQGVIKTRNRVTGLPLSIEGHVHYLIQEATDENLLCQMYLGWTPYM

One assay addresses full-length ATR (Homo sapiens (Human), UniProt Q13535). Put plainly: ATR inhibition assay (radioactive-phosphate incorporation). Type of assay: biochemical. The conditions noted are these: Ki(app), 5 nM full-length ATR, 10 μM ATP, 25° C. The procedure: Compounds were screened for their ability to inhibit ATR kinase using a radioactive-phosphate incorporation assay. Assays were carried out in a mixture of 50 mM Tris/HCl (pH 7.5), 10 mM MgCl2 and 1 mM DTT. Final substrate concentrations were 10 μM [γ-33P]ATP (3 mCi 33P ATP/mmol ATP, Perkin Elmer) and 800 μM target peptide ([…]) (SEQ ID NO:1).
Assays were carried out at 25° C. in the presence of 5 nM full-length ATR. An assay stock buffer solution was prepared containing all of the reagents listed above, with the exception of ATP and the test compound of interest. 13.5 μL of the stock solution was placed in a 96 well plate followed by addition of 2 μL of DMSO stock containing serial dilutions of the test compound (typically starting from a final concentration of 15 μM with 3-fold serial dilutions) in duplicate (final DMSO concentration 7%). The plate was pre-incubated for 10 minutes at 25° C. and the reaction initiated by addition of 15 μL [γ-33P]ATP (final concentration 10 μM).
The reaction was stopped after 24 hours by the addition of […] phosphoric acid containing 2 mM ATP. […]
After removing mean background values for all of the data points, Ki(app) data were calculated from non-linear regression analysis of the initial rate data using the Prism software package (GraphPad Prism version 3.0 cx for Macintosh, GraphPad Software, San Diego Calif., USA).
In the case of `Nc1nn2cc(F)cnc2c1C(=O)Nc1cnccc1OC1CC[S+]([O-])CC1` (stereo not shown) [I-O-44, 2-amino-6-fluoro-N-(4-((1-oxidotetrahydro-2H-thiopyran-4-yl)oxy)pyridin-3-yl)pyrazolo[1,5-a]pyrimidine-3-carboxamide], the Ki is 10 to 1000 nM.

A further assay deals with HCT116 colorectal cancer cells. Put plainly: Cisplatin sensitization assay (96 h MTS cell viability).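 Also: compound concentration needed to lower the IC50 of Cisplatin alone by a set fold.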 The conditions noted are these: Cisplatin sensitization value. Type of assay: cell-based. Put shortly:
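The MTS viability read, after 1 h with reagent, followed 96 h of co-treatment at 37° C. in 5% CO2. Both compound and cisplatin were titrated 2-fold from a 10 μM top final concentration in a complete concentration matrix on HCT116 cells. Scores +++/++/+ reflect cisplatin sensitization value ranges.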
Regarding `Nc1nn2cc(F)cnc2c1C(=O)Nc1cnccc1OC1CC[S+]([O-])CC1` (stereo not shown) [I-O-44, 2-amino-6-fluoro-N-(4-((1-oxidotetrahydro-2H-thiopyran-4-yl)oxy)pyridin-3-yl)pyrazolo[1,5-a]pyrimidine-3-carboxamide], the “Cisplatin Sensitization Assay” value is “++ (Compounds with a Cisplatin sensitization value >0.02 μM but <0.2 μM are marked with “++.”)”.

For `CN1CCN(c2c(F)cncc2NC(=O)c2c(N)nn3cc(CC#N)cnc23)CC1` [I-N-80, 2-amino-6-(cyanomethyl)-N-(5-fluoro-4-(4-methylpiperazin-1-yl)pyridin-3-yl)pyrazolo[1,5-a]pyrimidine-3-carboxamide], the “Cisplatin Sensitization Assay” value is recorded as “++ (Compounds with a Cisplatin sensitization value >0.02 μM but <0.2 μM are marked with “++.”)”.

On to `Nc1nn2cc(F)cnc2c1C(=O)Nc1cnccc1-n1ccnc1C(F)(F)F` [I-N-219, 2-amino-6-fluoro-N-(4-(2-(trifluoromethyl)-1H-imidazol-1-yl)pyridin-3-yl)pyrazolo[1,5-a]pyrimidine-3-carboxamide], for which the “Cisplatin Sensitization Assay” value is listed as “+++ (Compounds with a Cisplatin sensitization value of <0.02 μM are marked with “+++.”)”. For the molecule `CN1CCc2c(cncc2NC(=O)c2c(N)nn3cc(F)cnc23)C1` [I-C-8, 2-amino-6-fluoro-N-(7-methyl-5,6,7,8-tetrahydro-2,7-naphthyridin-4-yl)pyrazolo[1,5-a]pyrimidine-3-carboxamide], the “Cisplatin Sensitization Assay” value is “+ (Compounds with a Cisplatin sensitization value >0.2 μM but <5 μM are marked with “+.”)”. On the same count and under the same terms, then `Cc1nc(C)n(-c2ccncc2NC(=O)c2c(N)nn3cc(F)cnc23)n1` [I-N-218, 2-amino-N-(4-(3,5-dimethyl-1H-1,2,4-triazol-1-yl)pyridin-3-yl)-6-fluoropyrazolo[1,5-a]pyrimidine-3-carboxamide], with “+ (Compounds with a Cisplatin sensitization value >0.2 μM but <5 μM are marked with “+.”)”; and `CN1CCN2CCN(c3ccncc3NC(=O)c3c(N)nn4cc(Cl)cnc34)CC2C1` (stereo not shown) [I-N-61, 2-amino-6-chloro-N-(4-(8-methylhexahydro-1H-pyrazino[1,2-a]pyrazin-2(6H)-yl)pyridin-3-yl)pyrazolo[1,5-a]pyrimidine-3-carboxamide], with “+++ (Compounds with a Cisplatin sensitization value of <0.02 μM are marked with “+++.”)”.
